Reference: US9815864B2, “Substituted nucleosides, nucleotides and analogs thereof” (Alios BioPharma, Inc., priority 2013, dated 2017)

Target: Norovirus polymerase (NoVpol, genotype II) (Lordsdale virus, UniProt P54634)
Assay: biochemical
Conditions: not given

Norovirus polymerase (NoVpol, genotype II), sequence (P54634 1190-1699 limits assumed): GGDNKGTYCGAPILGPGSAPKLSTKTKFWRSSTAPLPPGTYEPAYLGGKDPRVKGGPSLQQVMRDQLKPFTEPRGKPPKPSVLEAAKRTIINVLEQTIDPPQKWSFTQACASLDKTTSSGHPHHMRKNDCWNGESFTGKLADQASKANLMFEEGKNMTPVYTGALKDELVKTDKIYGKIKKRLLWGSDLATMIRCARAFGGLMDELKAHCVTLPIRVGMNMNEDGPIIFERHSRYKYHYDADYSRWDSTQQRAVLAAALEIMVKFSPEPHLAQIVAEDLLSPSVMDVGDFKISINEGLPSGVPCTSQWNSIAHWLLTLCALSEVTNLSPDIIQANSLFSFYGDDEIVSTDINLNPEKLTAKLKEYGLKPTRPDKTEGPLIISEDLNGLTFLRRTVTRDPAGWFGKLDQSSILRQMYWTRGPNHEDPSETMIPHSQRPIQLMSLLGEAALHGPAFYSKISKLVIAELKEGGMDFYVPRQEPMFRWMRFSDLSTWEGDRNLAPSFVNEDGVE

SMILES	IC50 [µM]
C[C@@]1(O)[C@H](O)[C@@](CF)(CO[P@](O)(=S)OP(=O)(O)OP(=O)(O)O)O[C@H]1n1ccc(=O)[nH]c1=O [Compound 171a]	< 1
C#C[C@@]1(O)[C@H](O)[C@@H](COP(O)(=S)OP(=O)(O)OP(=O)(O)O)O[C@H]1n1ccc(=O)[nH]c1=O (stereo partly drawn) [Compound 286a]	1 to 10

Same assay, conditions: 50 nM recombinant enzyme, 2.5 hours at 30° C.; read-out: IC50

SMILES	IC50 [µM]
[N-]=[N+]=N[C@]1(COP(=O)(O)OP(=O)(O)OP(=O)(O)O)O[C@@H](n2cnc3c(=O)[nH]c(N)nc32)[C@H](F)[C@@H]1O [Compound 269a]	< 1
[N-]=[N+]=N[C@]1(COP(=O)(O)OP(=O)(O)OP(=O)(O)O)O[C@@H](n2ccc(N)nc2=O)[C@@H](O)[C@@H]1O [Compound 270a]	< 1
Nc1nc2c(ncn2[C@@H]2O[C@](CCl)(COP(=O)(O)OP(=O)(O)OP(=O)(O)O)[C@@H](O)[C@H]2F)c(=O)[nH]1 [Compound 116a]	1 to 10
[N-]=[N+]=N[C@]1(COP(=O)(O)OP(=O)(O)OP(=O)(O)O)O[C@@H](n2ccc(N)nc2=O)[C@H](O)[C@@H]1O [Compound 383a]	< 1
C[C@]1(COP(=O)(O)OP(=O)(O)OP(=O)(O)O)O[C@@H](n2cnc3c(=O)[nH]c(N)nc32)[C@H](O)[C@@H]1O [Compound 334a]	< 1
C#C[C@]1(O)[C@H](n2cnc3c(=O)[nH]c(N)nc32)O[C@](F)(COP(=O)(O)OP(=O)(O)OP(=O)(O)O)[C@H]1O [Compound 236a]	< 1
C[C@]1(N)[C@H](n2ccc(N)nc2=O)O[C@](F)(COP(=O)(O)OP(=O)(O)OP(=O)(O)O)[C@H]1O [Compound 303a]	10 to 100
C[C@@]1(O)[C@H](O)[C@@](CF)(COP(=O)(O)OP(=O)(O)OP(=O)(O)O)O[C@H]1n1cnc2c(=O)[nH]c(N)nc21 [Compound 216a]	< 1
C[C@]1(F)[C@H](n2ccc(=O)[nH]c2=O)O[C@](F)(COP(=O)(O)OP(=O)(O)OP(=O)(O)O)[C@H]1O [Compound 242a]	10 to 100
[N-]=[N+]=N[C@]1(COP(=O)(O)OP(=O)(O)OP(=O)(O)O)O[C@@H](n2ccc(=O)[nH]c2=O)[C@H](O)[C@@H]1O [Compound 264a]	< 1
C=C[C@]1(O)[C@H](n2ccc(=O)[nH]c2=O)O[C@](F)(COP(=O)(O)OP(=O)(O)OP(=O)(O)O)[C@H]1O [Compound 330a]	1 to 10
C#C[C@@]1(O)[C@H](O)[C@@H](COP(=O)(O)OP(=O)(O)OP(=O)(O)O)O[C@H]1n1ccc2c(N)ncnc21 [Compound 292a]	< 1
[N-]=[N+]=NC[C@]1(COP(=O)(O)OP(=O)(O)OP(=O)(O)O)O[C@@H](n2ccc(=O)[nH]c2=O)[C@H](F)[C@@H]1O [Compound 114a]	< 1
C=C[C@]1(COP(=O)(O)OP(=O)(O)OP(=O)(O)O)O[C@@H](n2ccc(N)nc2=O)[C@H](F)[C@@H]1O [Compound 36b]	1 to 10
Nc1nc(=O)n([C@@H]2O[C@](CCl)(COP(=O)(O)OP(=O)(O)OP(=O)(O)O)[C@@H](O)[C@H]2F)cc1F [Compound 97g]	1 to 10
C=CC[C@@]1(O)[C@H](O)[C@@](CF)(COP(=O)(O)OP(=O)(O)OP(=O)(O)O)O[C@H]1n1ccc(=O)[nH]c1=O [Compound 350a]	1 to 10
C#C[C@@]1(O)[C@H](O)[C@@H](COP(=O)(O)OP(=O)(O)OP(=O)(O)O)O[C@H]1n1cnc2c(=O)[nH]c(N)nc21 [Compound 290a]	< 1
C[C@]1(Cl)[C@H](n2ccc(=O)[nH]c2=O)O[C@](F)(COP(=O)(O)OP(=O)(O)OP(=O)(O)O)[C@H]1O [Compound 239a]	1 to 10
C[C@]1(N=[N+]=[N-])[C@H](n2ccc(N)nc2=O)O[C@](F)(COP(=O)(O)OP(=O)(O)OP(=O)(O)O)[C@H]1O [Compound 302a]	1 to 10
C#C[C@]1(F)[C@H](n2ccc(=O)[nH]c2=O)O[C@](F)(COP(=O)(O)OP(=O)(O)OP(=O)(O)O)[C@H]1O [Compound 313a]	1 to 10
C#C[C@@]1(O)[C@H](O)[C@@](CF)(COP(=O)(O)OP(=O)(O)OP(=O)(O)O)O[C@H]1n1cnc2c(N)ncnc21 [Compound 230a]	< 1
Cc1cn([C@@H]2O[C@](CCl)(COP(=O)(O)OP(=O)(O)OP(=O)(O)O)[C@@H](O)[C@H]2F)c(=O)nc1N [Compound 97d]	1 to 10
C[C@@]1(Cl)[C@H](O)[C@@H](COP(=O)(O)OP(=O)(O)OP(=O)(O)O)O[C@H]1n1ccc(N)nc1=O [Compound 262a]	1 to 10
C[C@]1(O)[C@H](n2ccc(=O)[nH]c2=O)O[C@](C)(COP(=O)(O)OP(=O)(O)OP(=O)(O)O)[C@H]1O [Compound 217a]	< 1
C=C[C@@]1(O)[C@H](O)[C@@](CF)(COP(=O)(O)OP(=O)(O)OP(=O)(O)O)O[C@H]1n1ccc(=O)[nH]c1=O [Compound 348a]	< 1
C=C[C@]1(COP(=O)(O)OP(=O)(O)OP(=O)(O)O)O[C@@H](n2cnc3c(=O)[nH]c(N)nc32)[C@H](F)[C@@H]1O [Compound 34a]	< 1
C#C[C@]1(F)[C@H](n2cnc3c(=O)[nH]c(N)nc32)O[C@](F)(COP(=O)(O)OP(=O)(O)OP(=O)(O)O)[C@H]1O [Compound 237a]	< 1

System: Murine norovirus (MNV-1)
Assay: Norovirus MNV-1 antiviral assay (CPE reduction, CellTiter-Glo, RAW 264.7 cells)
Type: cell-based
Conditions: RAW264.7, 72 h; RAW 264.7 cells infected with MNV-1 (MOI of 0.001), 3 days; read-out: EC50

SMILES	EC50 [µM]
CCOc1nc(N)nc2c1ncn2[C@@H]1O[C@]2(F)CO[P@@](=O)(OC(C)C)O[C@H]2[C@@]1(C)O [Compound 145a]	10 to 100

System: NV genome in HG23 cells
Assay: Norovirus replicon assay (HG23 cells, NV genome by qRT-PCR)
Type: cell-based, genogroup 1 norovirus
Conditions: HG23 cells, reduction of NV genome vs mock-medium at 48 h

SMILES	EC50 [µM]
C#C[C@]1(F)[C@H](n2cnc3c(OCC)nc(N)nc32)O[C@](F)(COP(=O)(N[C@@H](C)C(=O)OC2CCCCC2)Oc2ccccc2)[C@H]1O (stereo partly drawn) [Compound 148a]	< 1

Same assay, conditions: HG23 cells, reduction of NV genome vs mock-medium at 48 h; read-out: EC50

SMILES	EC50 [µM]
C#C[C@]1(O)[C@H](n2cnc3c(OCC)nc(N)nc32)O[C@](F)(CO[P@](=O)(N[C@@H](C)C(=O)OC2CCCCC2)Oc2ccccc2)[C@H]1O [Compound 142a]	1 to 10
C#C[C@]1(O)[C@H](n2cnc3c(OCC)nc(N)nc32)O[C@](F)(CO[P@@](=O)(N[C@@H](C)C(=O)OC2CCCCC2)Oc2ccccc2)[C@H]1O [Compound 143a]	1 to 10

Same assay, conditions: Norovirus, HG23, 48 h

SMILES	EC50 [µM]
CCOc1nc(N)nc2c1ncn2[C@@H]1O[C@](F)(COP(=O)(N[C@@H](C)C(=O)OC2CCCCC2)Oc2ccccc2)[C@@H](O)[C@@]1(C)O (stereo partly drawn) [Compound 128a]	1 to 10
CCOc1nc(N)nc2c1ncn2[C@@H]1O[C@](F)(COP(=O)(N[C@@H](C)C(=O)OC2CCCCC2)Oc2ccccc2)[C@@H](F)[C@@]1(C)O (stereo partly drawn) [Compound 134a]	1 to 10
CCOc1nc(N)nc2c1ncn2[C@@H]1O[C@](CF)(COP(=O)(N[C@@H](C)C(=O)OC2CCCCC2)Oc2ccccc2)[C@@H](O)[C@@]1(C)O (stereo partly drawn) [Compound 153a]	< 1
C#C[C@]1(F)[C@H](n2cnc3c(OCC)nc(N)nc32)O[C@](F)(COP(=O)(N[C@@H](C)C(=O)OC2CCCCC2)Oc2ccccc2)[C@H]1O (stereo partly drawn) [Compound 147a]	< 1

Same assay, conditions: Norovirus; HG23 cells, reduction of NV genome vs mock-medium at 48 h; read-out: EC50

SMILES	EC50 [µM]
[N-]=[N+]=N[C@]1(CO)O[C@@H](n2ccc(N)nc2=O)[C@@H](O)[C@@H]1O [Compound 266a]	1 to 10
[N-]=[N+]=N[C@]1(CO)O[C@@H](n2ccc(N)nc2=O)C(F)(F)[C@@H]1O [Compound 380a]	1 to 10
C#C[C@@]1(O)[C@H](O)[C@](CO)(CCl)O[C@H]1n1ccc(=O)[nH]c1=O [Compound 344a]	10 to 100
[N-]=[N+]=N[C@]1(CO)O[C@@H](n2ccc(N)nc2=O)[C@H](O)[C@@H]1O [Compound 381a]	10 to 100
C[C@@]1(O)[C@H](O)[C@](CO)(CF)O[C@H]1n1ccc(N)nc1=O [Compound 338a]	10 to 100
